Measurements reported in patent US20120214862A1, “MODULATION OF FACTOR 7 EXPRESSION” (ISIS Pharmaceuticals, Inc., priority 2009, published 2012).
In the oligonucleotide strings, read from the 5' end, every base follows the letter of its sugar. An asterisk marks phosphorothioate; unmarked linkages are phosphodiester. Other units and linkages are bracketed, terminal groups are in braces. A string of capitals states the bases alone. e = 2'-O-(2-methoxyethyl) (MOE); [5mC] = 5-methylcytosine; d = 2'-deoxy (DNA)

Columns and labels:
human Factor 7 mRNA [1] = experiment: Antisense inhibition of human Factor 7 mRNA in HepB3 cells, lipofectin, 50 nM, real-time RT-PCR; format: cell-based; details: HepB3 cells; for % Inhibition (human Factor 7 mRNA): Example 1, 50 nM, ~24 h, relative to untreated control cells
Procedure, shortened: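 Cells plated at 4,000 per well were transfected and harvested after approximately 24 hours of treatment. Transcript levels, measured with primer probe set RTS 2927, were normalised to total RNA by RIBOGREEN®. Values are percent inhibition relative to untreated control cells.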

human Factor 7 mRNA [2] = experiment: Dose-dependent antisense inhibition of human Factor 7 in HepB3 cells, transfection with lipofectin; format: cell-based; details: for percent inhibition of Factor 7 mRNA, relative to untreated control cells: lipofectin, HepB3 cells, 16 hours; for percent inhibition of Factor 7 mRNA, 6.25 nM / percent inhibition of Factor 7 mRNA, 12.5 nM / percent inhibition of Factor 7 mRNA, 25.0 nM / percent inhibition of Factor 7 mRNA, 50.0 nM / percent inhibition of Factor 7 mRNA, 100.0 nM / percent inhibition of Factor 7 mRNA, 3.125 nM: HepB3, lipofectin, ~16 h
Method: Cells were plated at a density of 4,000 cells per well and treated with lipofectin reagent with 3.125 nM, 6.25 nM, 12.5 nM, 25 nM, 50 nM, and 100 nM concentrations of antisense oligonucleotide, as indicated in Table 3. After a treatment period of approximately 16 hours, RNA was isolated from the cells and Factor 7 mRNA levels were measured by real-time RT-PCR, as described herein. Human Factor 7 primer probe set RTS 2927 (forward sequence: […], incorporated herein as SEQ ID NO: 164; reverse sequence: […], incorporated herein as SEQ ID NO: 165; probe sequence: TGGGTGGTCTCCGCGGCCX, incorporated herein as SEQ ID NO: 166) was used to measure mRNA levels. Factor 7 mRNA levels were adjusted according to total RNA content as measured by RIBOGREEN®. Results are presented as percent inhibition of Factor 7, relative to untreated control cells.
Cells were plated at a density of 4,000 cells per well and transfected using lipofectin reagent with 6.25 nM, 12.5 nM, 25.0 nM, 50.0 nM, and 100.0 nM concentrations of antisense oligonucleotide, as indicated in Table 7. After a treatment period of approximately 16 hours, RNA was isolated from the cells and Factor 7 mRNA levels were measured by real-time RT-PCR, as described herein. Human Factor 7 primer probe set RTS 2927 was used to measure mRNA levels. Factor 7 mRNA levels were adjusted according to total RNA content as measured by RIBOGREEN®. Results are presented as percent inhibition of Factor 7, relative to untreated control cells.
Cells were plated at a density of 4,000 cells per well and transfected using lipofectin reagent with 3.125 nM, 6.25 nM, 12.5 nM, 25 nM, 50 nM, and 100 nM concentrations of antisense oligonucleotide, as specified in Table 14. After a treatment period of approximately 16 hours, RNA was isolated from the cells and Factor 7 mRNA levels were measured by quantitative real-time PCR. Human Factor 7 primer probe set RTS 2927 was used to measure mRNA levels. Factor 7 mRNA levels were adjusted according to total RNA content, as measured by RIBOGREEN®. Results are presented as percent inhibition of Factor 7, relative to untreated control cells.

[3] = gapmers (5-10-5, 3-14-3, 2-13-5 MOE) targeted to nucleobases 4868 to 4899 of SEQ ID NO: 1
[4] = lipofectin, 50 nM antisense oligonucleotide, approximately 24 hours, primer probe set RTS 2927, relative to untreated control

Substance	% Inhibition of human Factor 7 mRNA levels (human Factor 7 mRNA [1]; [3]) [%]	% Inhibition of human Factor 7 mRNA levels (human Factor 7 mRNA [1]; [4]) [%]	percent inhibition of Factor 7 mRNA, 6.25 nM (human Factor 7 mRNA [2]; Example 5) [%]	percent inhibition of Factor 7 mRNA, 12.5 nM (human Factor 7 mRNA [2]; Example 5, 12.5 nM) [%]	percent inhibition of Factor 7 mRNA, 25.0 nM (human Factor 7 mRNA [2]; Example 5) [%]	percent inhibition of Factor 7 mRNA, 50.0 nM (human Factor 7 mRNA [2]; Example 5) [%]	percent inhibition of Factor 7 mRNA, 100.0 nM (human Factor 7 mRNA [2]; Example 5) [%]	% Inhibition (human Factor 7 mRNA) (human Factor 7 mRNA [1]; lipofectin) [%]	percent inhibition of Factor 7 mRNA, 3.125 nM (human Factor 7 mRNA [2]; Example 2, 3.125 nM) [%]	percent inhibition of Factor 7 mRNA, 6.25 nM (human Factor 7 mRNA [2]; Example 2) [%]	percent inhibition of Factor 7 mRNA, 12.5 nM (human Factor 7 mRNA [2]; Example 2, 12.5 nM) [%]	percent inhibition of Factor 7 mRNA, 25.0 nM (human Factor 7 mRNA [2]; Example 2) [%]	percent inhibition of Factor 7 mRNA, 50.0 nM (human Factor 7 mRNA [2]; Example 2) [%]	percent inhibition of Factor 7 mRNA, 100.0 nM (human Factor 7 mRNA [2]; Example 2) [%]	further results
422294 (antisense eG*eA*dG*dT*dT*d[5mC]*dT*dG*d[5mC]*dA*dG*dG*dA*dG*d[5mC]*eG*eG*e[5mC]*e[5mC]*eT) [compound 422294]	78														percent inhibition of Factor 7 mRNA, relative to untreated control cells (human Factor 7 mRNA [2]; 3.125 nM): 9%; percent inhibition of Factor 7 mRNA, relative to untreated control cells (human Factor 7 mRNA [2]; 12.5 nM): 32%; percent inhibition of Factor 7 mRNA, relative to untreated control cells (human Factor 7 mRNA [2]; 25 nM): 61%; percent inhibition of Factor 7 mRNA, relative to untreated control cells (human Factor 7 mRNA [2]; 50 nM): 77%; percent inhibition of Factor 7 mRNA, relative to untreated control cells (human Factor 7 mRNA [2]; 100 nM): 84%; percent inhibition of Factor 7 mRNA, relative to untreated control cells (human Factor 7 mRNA [2]): 21%
416455 (antisense e[5mC]*eG*e[5mC]*e[5mC]*eG*dG*d[5mC]*dT*d[5mC]*dT*dG*d[5mC]*dT*d[5mC]*dA*eT*e[5mC]*e[5mC]*e[5mC]*e[5mC]) [compound 416455]		72	28	44	64	78	87								% Inhibition of human Factor 7 mRNA levels (human Factor 7 mRNA [1]; gapmers targeted to nucleobases 13760 to 13789 of SEQ ID NO: 1 (Table 10)): 51%
407594 (antisense e[5mC]*e[5mC]*eT*eG*e[5mC]*dA*dG*d[5mC]*d[5mC]*dA*dG*dG*d[5mC]*dA*dG*e[5mC]*e[5mC]*e[5mC]*eT*eG) [compound 407594]								87	10	34	63	77	84	80	
416508 (antisense e[5mC]*eG*eA*eG*eT*dT*d[5mC]*dT*dG*d[5mC]*dA*dG*dG*dA*dG*e[5mC]*eG*eG*e[5mC]*e[5mC]) [compound 416508]	67	67	42	51	71	79	89								
407606 (antisense e[5mC]*eT*eG*eG*eT*d[5mC]*d[5mC]*dT*dT*dG*d[5mC]*dA*dG*dG*dA*eG*e[5mC]*e[5mC]*e[5mC]*e[5mC]) [compound 407606]		57						89	20	0	49	55	83	84	
407900 (antisense e[5mC]*e[5mC]*e[5mC]*e[5mC]*eA*d[5mC]*dA*dA*dT*dT*d[5mC]*dG*dG*d[5mC]*d[5mC]*eT*eT*eG*eG*eG) [compound 407900]		78	18	36	61	82	91	91	52	58	80	87	94	91	
